According to PMC5218480 (PLoS ONE, 2017):

Test system: MV-4-11 cells
Assay: Gene expression microarray analysis (Affymetrix PrimeView) and GSEA
Assay type: cell-based, human
Set-up: RFU PODN (11730768_x_at) / Fold change /veh PODN (11730768_x_at) / RFU LINC00158 (11744669_a_at) / Fold change /veh LINC00158 (11744669_a_at) / RFU DUSP10 (11751237_a_at) / Fold change /veh DUSP10 (11751237_a_at) / RFU ID3 (11757404_x_at) / Fold change /veh ID3 (11757404_x_at) / RFU PLEKHG5 (11737974_s_at) / Fold change /veh PLEKHG5 (11737974_s_at) / RFU LRRC4B (11730491_at) / Fold change /veh LRRC4B (11730491_at) / RFU GIMAP4 (11747438_a_at) / Fold change /veh GIMAP4 (11747438_a_at) / RFU KRT8 (11758183_x_at) / Fold change /veh KRT8 (11758183_x_at) / RFU CNN1 (11734310_a_at) / Fold change /veh CNN1 (11734310_a_at) / RFU VPS37D (11726825_at) / Fold change /veh VPS37D (11726825_at) / RFU C10orf10 (11716522_x_at) / Fold change /veh C10orf10 (11716522_x_at) / RFU KIR2DL2 /// KIR2DL4 /// KIR2DL5A /// KIR2DL5B /// KIR2DS1 /// KIR2DS2 /// KIR2DS3 /// KIR2DS4 /// KIR3DL3 /// KIR3DL3 /// KIR3DS1 (11738374_at) / Fold change /veh KIR2DL2 /// KIR2DL4 /// KIR2DL5A /// KIR2DL5B /// KIR2DS1 /// KIR2DS2 /// KIR2DS3 /// KIR2DS4 /// KIR3DL3 /// KIR3DL3 /// KIR3DS1 (11738374_at) / RFU C1QL1 (11718748_at) / Fold change /veh C1QL1 (11718748_at) / RFU TMPRSS4 (11747572_a_at) / Fold change /veh TMPRSS4 (11747572_a_at) / RFU HAMP (11756126_x_at) / Fold change /veh HAMP (11756126_x_at) / RFU RNFT2 (11725882_a_at) / Fold change /veh RNFT2 (11725882_a_at) / RFU NR4A2 (11747474_a_at) / Fold change /veh NR4A2 (11747474_a_at) / RFU ABCC12 (11746883_a_at) / Fold change /veh ABCC12 (11746883_a_at) / RFU TMEM136 (11760407_x_at) / Fold change /veh TMEM136 (11760407_x_at) / RFU CLDN22 /// WWC2 (11732394_at) / Fold change /veh CLDN22 /// WWC2 (11732394_at) / RFU HLA-DPB1 (11760878_x_at) / Fold change /veh HLA-DPB1 (11760878_x_at) / RFU SPINT1 (11716480_a_at) / Fold change /veh SPINT1 (11716480_a_at) / RFU GAP43 (11754022_s_at) / Fold change /veh GAP43 (11754022_s_at) / RFU A4GNT (11735810_at) / Fold change /veh A4GNT (11735810_at) / RFU PRB3 (11715151_x_at) / Fold change /veh PRB3 (11715151_x_at) / RFU TUBB4B (11761932_at) / Fold change /veh TUBB4B (11761932_at) / RFU CAPN14 (11732068_a_at) / Fold change /veh CAPN14 (11732068_a_at) / RFU TMCC2 (11721928_a_at) / Fold change /veh TMCC2 (11721928_a_at) / RFU IRGQ (11745062_a_at) / Fold change /veh IRGQ (11745062_a_at) / RFU FAM174B (11720279_a_at) / Fold change /veh FAM174B (11720279_a_at) / RFU TMPRSS4 (11748680_a_at) / Fold change /veh TMPRSS4 (11748680_a_at) / RFU FAM212B (11763350_a_at) / Fold change /veh FAM212B (11763350_a_at) / RFU PLEKHG5 (11743358_a_at) / Fold change /veh PLEKHG5 (11743358_a_at) / RFU ZSCAN30 (11745921_a_at) / Fold change /veh ZSCAN30 (11745921_a_at) / RFU CMKLR1 (11741424_a_at) / Fold change /veh CMKLR1 (11741424_a_at) / RFU LOC101060620 /// MAPK8IP1 (11723275_at) / Fold change /veh LOC101060620 /// MAPK8IP1 (11723275_at) / RFU SPTSSB (11747773_x_at) / Fold change /veh SPTSSB (11747773_x_at) / RFU PRSS12 (11739890_at) / Fold change /veh PRSS12 (11739890_at) / RFU BIN1 (11741810_x_at) / Fold change /veh BIN1 (11741810_x_at) / RFU WNT11 (11732464_a_at) / Fold change /veh WNT11 (11732464_a_at) / RFU C10orf10 (11716521_a_at) / Fold change /veh C10orf10 (11716521_a_at) / RFU C5orf56 (11738089_at) / Fold change /veh C5orf56 (11738089_at) / RFU CYB561 (11721691_x_at) / Fold change /veh CYB561 (11721691_x_at) / RFU ANKRD19P (11752326_a_at) / Fold change /veh ANKRD19P (11752326_a_at) / RFU OR2T12 /// OR2T33 /// OR2T8 (11738714_s_at) / Fold change /veh OR2T12 /// OR2T33 /// OR2T8 (11738714_s_at) / RFU VCAN (11748164_a_at) / Fold change /veh VCAN (11748164_a_at) / RFU JSRP1 (11732532_at) / Fold change /veh JSRP1 (11732532_at) / RFU KRTAP10-11 (11738290_x_at) / Fold change /veh KRTAP10-11 (11738290_x_at) / RFU MYO3A (11730013_a_at) / Fold change /veh MYO3A (11730013_a_at) / RFU EBF3 (11725865_a_at) / Fold change /veh EBF3 (11725865_a_at) / RFU CAMK2N1 (11719241_x_at) / Fold change /veh CAMK2N1 (11719241_x_at) / RFU C5orf56 (11738088_a_at) / Fold change /veh C5orf56 (11738088_a_at) / RFU OLFML3 (11715873_a_at) / Fold change /veh OLFML3 (11715873_a_at) / RFU LOC100653217 /// NTM (11731650_a_at) / Fold change /veh LOC100653217 /// NTM (11731650_a_at) / RFU MAPK11 (11762145_a_at) / Fold change /veh MAPK11 (11762145_a_at) / RFU FIZ1 (11724087_x_at) / Fold change /veh FIZ1 (11724087_x_at) / RFU OASL (11726364_x_at) / Fold change /veh OASL (11726364_x_at) / RFU SOX15 (11748057_x_at) / Fold change /veh SOX15 (11748057_x_at) / RFU CD79A (11719716_a_at) / Fold change /veh CD79A (11719716_a_at) / RFU HIST1H1D (11736915_at) / Fold change /veh HIST1H1D (11736915_at) / RFU CASKIN2 (11723855_a_at) / Fold change /veh CASKIN2 (11723855_a_at) / RFU LOC730098 (11760151_x_at) / Fold change /veh LOC730098 (11760151_x_at) / RFU OR4N2 (11742367_at) / Fold change /veh OR4N2 (11742367_at) / RFU PRRT2 (11749266_a_at) / Fold change /veh PRRT2 (11749266_a_at) / RFU SNX32 (11753110_a_at) / Fold change /veh SNX32 (11753110_a_at) / RFU CDHR5 (11726645_a_at) / Fold change /veh CDHR5 (11726645_a_at) / RFU RCAN1 (11760418_a_at) / Fold change /veh RCAN1 (11760418_a_at) / RFU FAM167A (11723789_a_at) / Fold change /veh FAM167A (11723789_a_at) / RFU FAM26E (11764081_at) / Fold change /veh FAM26E (11764081_at) / RFU ISYNA1 (11749810_s_at) / Fold change /veh ISYNA1 (11749810_s_at) / RFU ACY1 (11761880_at) / Fold change /veh ACY1 (11761880_at) / RFU 11764098_at / Fold change /veh 11764098_at / RFU SAMD14 (11745864_x_at) / Fold change /veh SAMD14 (11745864_x_at) / RFU NPB (11741838_a_at) / Fold change /veh NPB (11741838_a_at) / RFU TMPRSS6 (11731388_a_at) / Fold change /veh TMPRSS6 (11731388_a_at) / RFU KRTAP10-2 (11738614_at) / Fold change /veh KRTAP10-2 (11738614_at) / RFU ARHGAP8 /// PRR5-ARHGAP8 (11727945_x_at) / Fold change /veh ARHGAP8 /// PRR5-ARHGAP8 (11727945_x_at) / RFU KRTAP5-7 /// NADSYN1 (11734609_at) / Fold change /veh KRTAP5-7 /// NADSYN1 (11734609_at) / RFU RASL12 (11751679_a_at) / Fold change /veh RASL12 (11751679_a_at) / RFU CDKN2B (11736163_a_at) / Fold change /veh CDKN2B (11736163_a_at) / RFU PRF1 (11729649_at) / Fold change /veh PRF1 (11729649_at) / RFU, ZNF638 /// ZNF638-IT1 / Fold change vs veh, ZNF638 /// ZNF638-IT1 / RFU, PANK3 / Fold change vs veh, PANK3 / RFU, SH3YL1 / Fold change vs veh, SH3YL1 / RFU, ZEB2 / Fold change vs veh, ZEB2 / RFU, NRIP1 / Fold change vs veh, NRIP1 / RFU, PTTG1IP / Fold change vs veh, PTTG1IP / RFU, CAPN2 / Fold change vs veh, CAPN2 / RFU, MED14 / Fold change vs veh, MED14 / RFU, SNORA58 / Fold change vs veh, SNORA58 / RFU, C1orf63 / Fold change vs veh, C1orf63 / RFU, LRRFIP1 / Fold change vs veh, LRRFIP1 / RFU, NDUFAF7 / Fold change vs veh, NDUFAF7 / RFU, SLC12A2 / Fold change vs veh, SLC12A2 / RFU, IBTK / Fold change vs veh, IBTK / RFU, ESF1 / Fold change vs veh, ESF1 / Fold change vs veh, TMEM50B / RFU, TAOK1 / Fold change vs veh, TAOK1 / RFU, ACBD3 / Fold change vs veh, ACBD3 / RFU, TMA16 / Fold change vs veh, TMA16 / RFU, RWDD3 / Fold change vs veh, RWDD3 / RFU, BCAT1 / Fold change vs veh, BCAT1 / RFU, EDEM3 / Fold change vs veh, EDEM3 / RFU, TMEM33 / Fold change vs veh, TMEM33 / RFU, WDR75 / Fold change vs veh, WDR75 / RFU, AHCTF1 / Fold change vs veh, AHCTF1 / RFU, TFRC / Fold change vs veh, TFRC / RFU, ZDHHC17 / Fold change vs veh, ZDHHC17 / RFU, NOM1 / Fold change vs veh, NOM1 / RFU, ARL8B / Fold change vs veh, ARL8B / RFU, ZBTB11 / Fold change vs veh, ZBTB11 / RFU, TAMM41 / Fold change vs veh, TAMM41 / RFU, KIAA1704 /// LOC100996395 / Fold change vs veh, KIAA1704 /// LOC100996395 / RFU, ING1 / Fold change vs veh, ING1 / RFU, TRMT61B / Fold change vs veh, TRMT61B / RFU, FUBP3 / Fold change vs veh, FUBP3 / RFU, TP53 / Fold change vs veh, TP53 / RFU, TNKS2 / Fold change vs veh, TNKS2 / RFU, ZFP14 / Fold change vs veh, ZFP14 / RFU, ACTR2 / Fold change vs veh, ACTR2 / RFU, PPP3R1 / Fold change vs veh, PPP3R1 / RFU, PIK3R1 / Fold change vs veh, PIK3R1 / RFU, HNRNPA1 / Fold change vs veh, HNRNPA1 / RFU, RNF170 / Fold change vs veh, RNF170 / RFU, ZNF28 / Fold change vs veh, ZNF28 / RFU, RNGTT / Fold change vs veh, RNGTT / RFU, OGT / Fold change vs veh, OGT / RFU, BRD1 / Fold change vs veh, BRD1 / RFU, MARS / Fold change vs veh, MARS / RFU, ZNF655 / Fold change vs veh, ZNF655 / RFU, FAHD1 / Fold change vs veh, FAHD1 / RFU, BDP1 / Fold change vs veh, BDP1 / RFU, LRRCC1 / Fold change vs veh, LRRCC1 / RFU, ARID1A / Fold change vs veh, ARID1A / RFU, ZNF146 / Fold change vs veh, ZNF146 / RFU, ZNF330 / Fold change vs veh, ZNF330 / RFU, GPN3 / Fold change vs veh, GPN3 / RFU, C9orf123 / Fold change vs veh, C9orf123 / RFU, N4BP2L2 / Fold change vs veh, N4BP2L2 / RFU, ARFIP1 / Fold change vs veh, ARFIP1 / RFU, FAM179B / Fold change vs veh, FAM179B / RFU, BCL10 / Fold change vs veh, BCL10 / RFU, UHRF1BP1L / Fold change vs veh, UHRF1BP1L / RFU, BET1 / Fold change vs veh, BET1 / RFU, CNOT2 / Fold change vs veh, CNOT2 / RFU, ZNF268 / Fold change vs veh, ZNF268 / Fold change vs veh, ZNF507 / RFU, DGCR2 / Fold change vs veh, DGCR2 / RFU, WDSUB1 / Fold change vs veh, WDSUB1 / Fold change vs veh, HSP90B1 /// MIR3652 / RFU, ADSS / Fold change vs veh, ADSS / RFU, GK / Fold change vs veh, GK / RFU, ZNF148 / Fold change vs veh, ZNF148 / RFU, TAF9 / Fold change vs veh, TAF9 / RFU, SLC1A5 / Fold change vs veh, SLC1A5 / RFU, SLMO2 / Fold change vs veh, SLMO2 / RFU, ABCC4 / Fold change vs veh, ABCC4 / RFU, LOC101060439 /// RAP1B / Fold change vs veh, LOC101060439 /// RAP1B / RFU, RFX7 / Fold change vs veh, RFX7 / RFU, GTPBP10 / Fold change vs veh, GTPBP10 / RFU, CNEP1R1 / Fold change vs veh, CNEP1R1 / RFU, BIVM-ERCC5 /// ERCC5 / Fold change vs veh, BIVM-ERCC5 /// ERCC5 / RFU, ILF3 / Fold change vs veh, ILF3 / RFU 11762660_at / Fold change /veh 11762660_at / RFU VCAN (11757783_s_at) / Fold change /veh VCAN (11757783_s_at) / RFU DDX43 (11728927_at) / Fold change /veh DDX43 (11728927_at) / RFU KRT8 (11758188_x_at) / Fold change /veh KRT8 (11758188_x_at) / RFU NKD1 (11759106_at) / Fold change /veh NKD1 (11759106_at) / RFU SRD5A1 (11742802_a_at) / Fold change /veh SRD5A1 (11742802_a_at) / RFU TPSAB1 /// TPSB2 (11721975_s_at) / Fold change /veh TPSAB1 /// TPSB2 (11721975_s_at) / RFU GSTM3 (11746129_a_at) / Fold change /veh GSTM3 (11746129_a_at) / RFU IL23R (11737362_x_at) / Fold change /veh IL23R (11737362_x_at) / RFU TMEM51 (11727254_a_at) / Fold change /veh TMEM51 (11727254_a_at) / RFU PIWIL2 (11732686_x_at) / Fold change /veh PIWIL2 (11732686_x_at) / RFU ORM1 (11744905_x_at) / Fold change /veh ORM1 (11744905_x_at) / RFU CCDC152 (11743942_at) / Fold change /veh CCDC152 (11743942_at) / RFU ECM1 (11717891_a_at) / Fold change /veh ECM1 (11717891_a_at) / RFU IL23R (11748794_a_at) / Fold change /veh IL23R (11748794_a_at) / RFU TNFAIP8L3 (11732012_x_at) / Fold change /veh TNFAIP8L3 (11732012_x_at) / RFU MBOAT4 (11741988_at) / Fold change /veh MBOAT4 (11741988_at) / RFU 11764193_at / Fold change /veh 11764193_at / RFU TMEM53 (11763286_at) / Fold change /veh TMEM53 (11763286_at) / RFU MAGEB2 (11727129_at) / Fold change /veh MAGEB2 (11727129_at) / RFU TMEM200A (11744735_a_at) / Fold change /veh TMEM200A (11744735_a_at) / RFU CCDC152 (11751479_a_at) / Fold change /veh CCDC152 (11751479_a_at) / RFU FAM211A (11726209_a_at) / Fold change /veh FAM211A (11726209_a_at) / RFU RGS16 (11746705_a_at) / Fold change /veh RGS16 (11746705_a_at) / RFU VCAN (11755009_s_at) / Fold change /veh VCAN (11755009_s_at) / RFU RHOB (11743442_s_at) / Fold change /veh RHOB (11743442_s_at) / RFU RGS16 (11720943_a_at) / Fold change /veh RGS16 (11720943_a_at) / RFU RGS16 (11720944_at) / Fold change /veh RGS16 (11720944_at) / RFU, VPS4B / Fold change vs veh, VPS4B / RFU, CREB1 / Fold change vs veh, CREB1 / RFU, DNAJC13 / Fold change vs veh, DNAJC13 / RFU, GNAQ / Fold change vs veh, GNAQ / RFU, CDK5R1 / Fold change vs veh, CDK5R1 / RFU, ZRANB3 / Fold change vs veh, ZRANB3 / RFU, CUL4A / Fold change vs veh, CUL4A / RFU, CCNY / Fold change vs veh, CCNY / RFU, UFL1 / Fold change vs veh, UFL1 / RFU, COG3 / Fold change vs veh, COG3 / RFU, DIAPH2 / Fold change vs veh, DIAPH2 / RFU, SKA2 / Fold change vs veh, SKA2 / RFU, AFF3 / Fold change vs veh, AFF3 / RFU, LMF1 / Fold change vs veh, LMF1 / RFU, IPO11 / Fold change vs veh, IPO11 / RFU, DFFB / Fold change vs veh, DFFB / RFU, FOXP1 / Fold change vs veh, FOXP1 / RFU, CARD8 / Fold change vs veh, CARD8 / RFU, STRN3 / Fold change vs veh, STRN3 / RFU, ADK / Fold change vs veh, ADK / RFU, RASSF2 / Fold change vs veh, RASSF2 / RFU, WIPF1 / Fold change vs veh, WIPF1 / RFU, LARP1B / Fold change vs veh, LARP1B / RFU, RASA1 / Fold change vs veh, RASA1 / RFU, RB1 / Fold change vs veh, RB1 / RFU, PPFIA1 / Fold change vs veh, PPFIA1 / RFU, MAT2A / Fold change vs veh, MAT2A / RFU, CCT5 / Fold change vs veh, CCT5 / RFU, WDR92 / Fold change vs veh, WDR92 / RFU, CUX1 / Fold change vs veh, CUX1 / RFU, TTC7A / Fold change vs veh, TTC7A / RFU, TMEM135 / Fold change vs veh, TMEM135 / RFU, DEPTOR / Fold change vs veh, DEPTOR / RFU, CPM / Fold change vs veh, CPM / RFU, DNAJB6 / Fold change vs veh, DNAJB6 / RFU, CACNA2D3 / Fold change vs veh, CACNA2D3 / RFU, DTX4 / Fold change vs veh, DTX4 / RFU, TFCP2 / Fold change vs veh, TFCP2 / RFU, GMCL1 /// GMCL1P1 / Fold change vs veh, GMCL1 /// GMCL1P1 / RFU, AEBP2 / Fold change vs veh, AEBP2 / RFU, SNHG1 /// SNORD22 /// SNORD25 /// SNORD26 /// SNORD27 /// SNORD28 /// SNORD29 /// SNORD31 / Fold change vs veh, SNHG1 /// SNORD22 /// SNORD25 /// SNORD26 /// SNORD27 /// SNORD28 /// SNORD29 /// SNORD31 / Fold change (Aza/veh), C12orf56 (ProbeSet 11735607_a_at) / Fold change (ACY-1035/veh), C12orf56 (ProbeSet 11735607_a_at) / Fold change (Aza/veh), FGFR1OP (ProbeSet 11751329_s_at) / Fold change (ACY-1035/veh), FGFR1OP (ProbeSet 11751329_s_at) / Fold change (Aza/veh), VPS36 (ProbeSet 11739960_a_at) / Fold change (ACY-1035/veh), VPS36 (ProbeSet 11739960_a_at) / RFU SYPL1 (11715823_x_at) / Fold change /veh SYPL1 (11715823_x_at) / RFU IGFBP7 (11715501_s_at) / Fold change /veh IGFBP7 (11715501_s_at) / RFU REEP3 (11722064_at) / Fold change /veh REEP3 (11722064_at) / RFU IGLL1 (11728026_x_at) / Fold change /veh IGLL1 (11728026_x_at): dose or concentration left out as unconfirmed
Conditions: MV-4-11 cells, 48 hours

## Nc1ncn([C@@H]2O[C@H](CO)[C@@H](O)[C@H]2O)c(=O)n1 [azacitidine]
  Fold change /veh MYO3A (11730013_a_at): 0.99
